From patent US20080171117A1, “METHODS FOR REDUCING MICROBIAL CONTAMINATION IN SEAFOOD PROCESSING” (Tasker Products Corp., priority 2004, published 2008) come the findings set out here.

One test deals with Coliform. Briefly: Treated salmon under refrigeration: Coliform. Particulars: Treated With O3.
For another test, the system named is SPC. In words: Treated salmon under refrigeration: SPC. The note with it: Treated With O3.

In the case of `O=[O+][O-]` [O3, Ozone], the Coliform in the test on Coliform (day 3), in the test with Coliform (day 6), with Coliform (day 8), in the test on Coliform (day 9) and in the test with Coliform (day 10) was 0.5 throughout. Besides, the “Log SPC” value was 0 in the test with SPC (day 3); 0 in the test on SPC (day 6); 1.643 in the test on SPC (day 8); 0 in the test with SPC (day 9); 1.146 in the test with SPC (day 10). Moreover, the SPC with SPC (day 3) is 1; with SPC (day 6) it was 1; with SPC (day 8), 44; in the test on SPC (day 9) it was 1; in the test with SPC (day 10) it was 14.
